The test addresses SHP2 (Homo sapiens (Human), UniProt Q06124). Description: SHP2 Allosteric Inhibition Assay (DiFMUP prompt fluorescence). The format is biochemical. To be noted: 0.2 nM SHP2 with 0.5 μM Activating Peptide 1 or 2, surrogate substrate DiFMUP, 25° C.; read-out: SHP2 Allosteric Biochem: IC50. The source says:
Without wishing to be bound by theory, SHP is allosterically activated through binding of bis-tyrosyl-phosphorylated peptides to its Src Homology 2 (SH2) domains. The latter activation step leads to the release of the auto-inhibitory interface of SHP2, which in turn renders the SHP2 protein tyrosine phosphatase (PTP) active and available for substrate recognition and reaction catalysis. The catalytic activity of SHP2 was monitored using the surrogate substrate DiFMUP in a prompt fluorescence assay format.
The phosphatase reactions were performed at room temperature in 96-well black polystyrene plate, flat bottom, non-binding surface (Corning, Cat #3650) using a final reaction volume of 100 μL and the following assay buffer conditions: 50 mM HEPES, pH 7.2, 100 mM NaCl, 0.5 mM EDTA, 0.05% P-20, 1 mM DTT.
The inhibition of SHP2 by compounds of the disclosure (concentrations varying from 0.00005-10 μM) was monitored using an assay in which 0.2 nM of SHP2 was incubated with 0.5 μM of Activating Peptide 1 (sequence: H2N-LN(pY)IDLDLV(dPEG8)LST (pY)ASINFQK-amide) or Activating Peptide 2 (sequence: H2N-LN(pY)AQLWHA(dPEG8) LTI(pY)ATIRRF-amide). After 30-60-minutes incubation at 25° C., the surrogate substrate DiFMUP (Invitrogen, Cat #D6567) was added to the reaction and activity was determined by a kinetic read using a microplate reader (Envision, Perkin-Elmer or Spectramax M5, Molecular Devices). The excitation and emission wavelengths were 340 nm and 450 nm, respectively. Initial rates were determined from a linear fit of the data, and the inhibitor dose response curves were analyzed using normalized ICso regression curve fitting with control based normalization.

SHP2, sequence (Q06124 whole entry): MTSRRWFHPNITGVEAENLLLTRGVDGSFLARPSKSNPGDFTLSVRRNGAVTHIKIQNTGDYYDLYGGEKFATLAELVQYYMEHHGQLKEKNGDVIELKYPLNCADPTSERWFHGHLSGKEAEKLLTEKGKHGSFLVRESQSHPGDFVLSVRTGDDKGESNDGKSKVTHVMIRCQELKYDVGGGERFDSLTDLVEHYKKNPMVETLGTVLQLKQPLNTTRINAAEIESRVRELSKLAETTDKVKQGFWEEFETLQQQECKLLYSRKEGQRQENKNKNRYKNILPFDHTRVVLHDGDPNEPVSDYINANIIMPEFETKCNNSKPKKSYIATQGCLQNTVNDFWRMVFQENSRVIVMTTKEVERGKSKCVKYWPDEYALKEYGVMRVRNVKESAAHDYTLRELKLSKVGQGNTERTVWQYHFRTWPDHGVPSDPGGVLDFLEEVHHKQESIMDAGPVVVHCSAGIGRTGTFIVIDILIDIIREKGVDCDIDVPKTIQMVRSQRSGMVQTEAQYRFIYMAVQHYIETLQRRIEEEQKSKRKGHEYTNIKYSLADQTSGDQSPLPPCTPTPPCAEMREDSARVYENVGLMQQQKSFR

For `N[C@@H]1CCCC12CCN(c1cc(O)c(Sc3cccc(Cl)c3Cl)nc1CO)CC2` [Example 2, 5-[(1R)-1-amino-8-azaspiro[4.5]decan-8-yl]-2-[(2,3-dichlorophenyl)sulfanyl]-6-(hydroxymethyl)pyridin-3-ol], the 50% inhibitory concentration (IC50) – broadly, the concentration needed to halve the response being measured – was 37 nM.
As for `Cc1cc(N2CCC3(CCC[C@H]3N)CC2)cnc1-c1cccc(Cl)c1Cl` [Example 5, (1R)-8-[6-(2,3-dichlorophenyl)-5-methylpyridin-3-yl]-8-azaspiro[4.5]decan-1-amine], the figure is 210 nM; as for `Cc1cc(N2CCC3(CCC[C@H]3N)CC2)c(CO)nc1-c1cccc(Cl)c1Cl` [Example 4, {3-[(1R)-1-amino-8-azaspiro[4.5]decan-8-yl]-6-(2,3-dichlorophenyl)-5-methylpyridin-2-yl}methanol], 69 nM; as for `N[C@@H]1CCCC12CCN(c1cnc(-c3cccc(Cl)c3Cl)c(O)c1)CC2` [Example 3, 5-[(1R)-1-amino-8-azaspiro[4.5]decan-8-yl]-2-(2,3-dichlorophenyl)pyridin-3-ol], 740 nM.
With `N[C@@H]1CCCC12CCN(c1cc(O)c(-c3cccc(Cl)c3Cl)nc1CO)CC2` [Example 1, 5-[(4R)-4-amino-8-azaspiro[4.5]decan-8-yl]-2-(2,3-dichlorophenyl)-6-(hydroxymethyl)pyridin-3-ol], the half-maximal inhibitory concentration (IC50) was 210 nM.

(Values after patent US20240092795A1, “PYRIDINE COMPOUNDS AS ALLOSTERIC SHP2 INHIBITORS” (Revolution Medicines, Inc., priority 2017, published 2024).)
